Structures can show the parent of a compound that is named as a salt.
Target: T1, rat histamine H3 receptors (Rattus norvegicus, UniProt Q9QYN8)
T1 construct: Frozen rat frontal brain or frozen human post-mortem frontal brain is homogenized; from tissue; host or cells: rat frontal brain membranes
Experiment: Rat Histamine H3 Receptor Binding
Settings: rat frontal brain membranes; radioligand 3H-N-methyl-histamine 1 nM; 1 hour incubation; read-out: rH3 Ki
Protocol: The in vitro affinity of the compounds in the present invention at the rat or human histamine H3 receptors can be determined according to the following procedure. Frozen rat frontal brain or frozen human post-mortem frontal brain is homogenized in 20 volumes of cold 50 mM Tris HCl containing 2 mM MgCl2 (pH to 7.4 at 4° C.). The homogenate is then centrifuged at 45,000 G for 10 minutes. The supernatant is decanted and the membrane pellet resuspended by Polytron in cold 50 mM Tris HCl containing 2 mM MgCl2 (pH to 7.4 at 4° C.) and centrifuged again. The final pellet is resuspended in 50 mM Tris HCl containing 2 mM MgCl2 (pH to 7.4 at 25° C.) at a concentration of 12 mg/mL. Dilutions of compounds are made in 10% DMSO/50 mM Tris buffer (pH 7.4) (at 10× final concentration, so that the final DMSO concentration is 1%). Incubations are initiated by the addition of membranes (200 microliters) to 96 well V-bottom polypropylene plates containing 25 microliters of drug dilutions and 25 microliters of radioligand (1 nM final concentration 3H—N-methyl-histamine). After a 1 hour incubation, assay samples are rapidly filtered through Whatman GF/B filters and rinsed with ice-cold 50 mM Tris buffer (pH 7.4) using a Skatron cell harvester. Radioactivity is quantified using a BetaPlate scintillation counter. The percent inhibition of specific binding can then be calculated.

T1 sequence (Q9QYN8 whole entry): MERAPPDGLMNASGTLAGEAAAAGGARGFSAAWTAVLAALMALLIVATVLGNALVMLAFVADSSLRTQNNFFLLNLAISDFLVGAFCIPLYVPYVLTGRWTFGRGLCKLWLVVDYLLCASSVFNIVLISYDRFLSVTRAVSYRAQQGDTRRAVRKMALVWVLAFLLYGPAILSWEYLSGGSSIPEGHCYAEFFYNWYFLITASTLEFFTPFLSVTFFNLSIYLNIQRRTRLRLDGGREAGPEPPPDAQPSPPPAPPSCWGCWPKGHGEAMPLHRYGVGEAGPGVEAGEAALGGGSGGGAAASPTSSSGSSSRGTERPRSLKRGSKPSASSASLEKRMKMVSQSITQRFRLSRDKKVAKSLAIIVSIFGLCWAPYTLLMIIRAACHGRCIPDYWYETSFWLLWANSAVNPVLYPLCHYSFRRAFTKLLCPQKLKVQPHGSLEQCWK

Row | Compound | Ki
1 | CC(C)CNC(=O)C1CC(F)(c2cc(Cl)c(CN3CCCC3)cc2F)C1 (mixture of isomers) [Example 11, 3-(5-Chloro-2-fluoro-4-pyrrolidin-1-ylmethyl-phenyl)-3-fluoro-cyclobutanecarboxylic acid isobutyl-amide] | 24.1 nM
2 | O=C(C1CC(F)(c2ccc(CN3CCCC3)c(F)c2)C1)N1CCCC1 (stereo not drawn) [Example 9, N-{2-fluoro-4-[1-fluoro-3-(pyrrolidin-1-ylcarbonyl)cyclobutyl]benzyl}-pyrrolidine hydrochloride] | 18.9 nM
3 | CCNC(=O)C1CC(F)(c2ccc(CN3CCCC3)c(F)c2)C1 (stereo not drawn) [Example 16, 3-Fluoro-3-(3-fluoro-4-pyrrolidin-1-ylmethyl-phenyl)-cyclobutanecarboxylic acid ethylamide] | 20.7 nM
4 | O=C(NCC1CC1)C1CC(F)(c2ccc(CN3CCCC3)c(Cl)c2)C1 (stereo not drawn) [Example 46, 3-(3-Chloro-4-pyrrolidin-1-ylmethyl-phenyl)-3-fluoro-cyclobutanecarboxylic acid cyclopropylmethyl-amide] | 10.9 nM
5 | CC(C)CNC(=O)C1CC(F)(c2ccc(CN3CCCC3)c(F)c2)C1 (single isomer, unassigned) [Example 55, 3-Fluoro-3-(3-fluoro-4-pyrrolidin-1-ylmethyl-phenyl)-cyclobutanecarboxylic acid isobutyl-amide] | 10.1 nM
6 | CCNC(=O)C1CC(F)(c2ccc(CN3CCC[C@@H]3C)c(F)c2)C1 (stereo partly drawn) [Example 59, 3-Fluoro-3-[3-fluoro-4-((S)-2-methyl-pyrrolidin-1-ylmethyl)-phenyl]-cyclobutanecarboxylic acid ethylamide] | 21.4 nM
7 | CCNC(=O)C1CC(c2ccc(CN3CCCC3)c(F)c2)C1 (stereo not drawn) [Example 13, 3-(3-Fluoro-4-pyrrolidin-1-ylmethyl-phenyl)-cyclobutanecarboxylic acid ethylamide] | 10.1 nM
8 | CN(CC1CC1)C(=O)C1CC(F)(c2ccc(CN3CCCC3)c(Cl)c2)C1 (mixture of isomers) [Example 50, 3-(3-Chloro-4-pyrrolidin-1-ylmethyl-phenyl)-3-fluoro-cyclobutanecarboxylic acid cyclopropylmethyl-methyl-amide] | 32.3 nM
9 | CCN(C)C(=O)C1CC(F)(c2ccc(CN3CCCC3)c(F)c2)C1 (stereo not drawn) [Example 23, 3-Fluoro-3-(3-fluoro-4-pyrrolidin-1-ylmethyl-phenyl)-cyclobutanecarboxylic acid ethyl-methyl-amide] | 28.8 nM

Source: US8389743B2, “Histamine-3 receptor antagonists” (Pfizer Inc., priority 2005, dated 2013)
